Consider 24 compounds from ChEMBL document CHEMBL1124056, “Derivatives of the muscarinic agent N-methyl-N-(1-methyl-4-pyrrolidino-2-butynyl)acetamide” (J Med Chem, 1988).

The structures appear in SMILES notation. Where only a bound is given, the exact number is not on record here.

The species entered for assay [1] is Cavia porcellus. Nature of the assay: Concentration that elicits 50% of its own maximum contractile response, in guinea pig ileum. It counts as functional.
For assay [2], the species on record is Cavia porcellus. As to the kind of experiment: Equipotent molar ratio relative to that of carbachol, which equals 1, in guinea pig ileum. It is filed as functional.
The species entered for assay [3] is Cavia porcellus. Nature of the assay: Maximum contractile response relative to that elicited by carbachol, in guinea pig ileum. It counts as functional.
Assay [4] deals with Muscarinic acetylcholine receptor. As to the kind of experiment: Equilibrium dissociation constant muscarinic receptor complex, measured in guinea pig ileum. It counts as functional, tissue-based, Cavia porcellus.
The species named for assay [5] is Mus musculus. Nature of the assay: Dose required to double the dose of oxotremorine inducing a predetermined (grade 2) tremor intensity in mice. It is filed as functional.
The species named for assay [6] is Cavia porcellus. Nature of the assay: Efficacy relative to that of carbachol, measured in guinea pig ileum. It counts as functional.
The species entered for assay [7] is Mus musculus. As to the kind of experiment: Dose required to double the dose of oxotremorine inducing a predetermined (grade 2) tremor intensity in mice; g=Agonist. The note with it: filed as agonist. It is filed as functional, organism-based.

Consider `C[N+](C)(C)CCOC(N)=O.[Cl-]` [CARBACHOL], for which, in assay [1], the 50% effective concentration (EC50) – broadly, the concentration that produces a half-maximal response – is 0.11 µM. Moreover, the EPMR in assay [2] was 1. This compound also showed an Emax in assay [3] of 1.

For `CC(C#CCN1CCCC1)N(C)S(C)(=O)=O` (configuration not stated), the dissociation constant Kd (as a rule, the constant that tells how readily two partners part at equilibrium) in assay [4] was 13 µM. The compound further yielded a Tremorolytic dose in assay [5] of 82 µM/kg.

Regarding `CN(C)CC#CCN1C(=O)CCC1=O`, in assay [1], a half-maximal effect (EC50) was put at 2.5 µM. Moreover, the dissociation constant Kd in assay [4] was 208 µM. This compound came in with a Relative efficacy in assay [6] of 0.35. This compound also came in with an Emax in assay [3] of 1.01. Also, the Tremorolytic dose result in assay [7] was “Agonist”.

For the compound `CC(C#CCN1CCCC1)N1C(=O)CCC1=O` (configuration not stated), the Kd in assay [4] came out at 0.15 µM. In assay [5], this compound gave a Tremorolytic dose of 1.2 µM/kg.

As to `CC(=O)N(C(C)=O)C(C)C#CCN(C)C` (configuration not stated), the concentration giving a half-maximal response (EC50) in assay [1] is 5.5 µM. This compound also returned a Kd in assay [4] of 21.6 µM. This compound also showed a Relative efficacy in assay [6] of 0.03. Further, in assay [2], the EPMR stood at 57.9. This compound came in with an Emax in assay [3] of 0.99. In assay [5], this compound came in with a Tremorolytic dose of 109 µM/kg.

With `CC(=O)N(C(C)=O)C(C)C#CC[N+](C)(C)C` (configuration not stated), the concentration for a half-maximal effect (EC50) in assay [1] stood at 1.2 µM. Further, the Kd in assay [4] worked out at 8.6 µM. Also, in assay [6], the Relative efficacy stood at 0.055. The EPMR in assay [2] is 10.7. Also, the Emax in assay [3] was 1.01.

For `CC(C#CCN1CCCC1)N(S(C)(=O)=O)S(C)(=O)=O` (configuration not stated), in assay [4], the Kd worked out at 5.4 µM. In assay [5], this compound returned a Tremorolytic dose of 157 µM/kg.

`CC(=O)N(CC#CCN(C)C)C(C)=O`: in assay [1], the response was half-maximal at 38.8 µM (EC50). This compound registered a Kd in assay [4] of 65.6 µM. This compound registered a Relative efficacy in assay [6] of 0.013. In assay [2], the EPMR is listed as 320. In addition, in assay [3], the Emax is on record as 0.84. Moreover, the Tremorolytic dose in assay [5] is >200 µM/kg.

`CC(C#CC[N+](C)(C)C)N(C)C(=O)C(F)(F)F` (configuration not stated) showed a 50% effective concentration (EC50) in assay [1] of 27.1 µM. In assay [4], this compound had an equilibrium dissociation constant (Kd) of 91.9 µM. Further, the Relative efficacy in assay [6] came out at 0.026. In addition, the EPMR in assay [2] is 214. In assay [3], this compound displayed an Emax of 0.89.

`CC(C#CCN1CCCC1)N(C)C(=O)C(F)(F)F` (configuration not stated) had a dissociation constant Kd in assay [4] of 0.57 µM. In assay [3], this compound had an Emax of 0. The same compound returned a Tremorolytic dose in assay [5] of 21.4 µM/kg.

On to `CN(CC#CCN1CCCC1)C(=O)C(F)(F)F`, for which, in assay [1], the EC50 turned out to be 16.9 µM. Moreover, in assay [4], the dissociation constant (Kd) came to 15.6 µM. In assay [6], this compound came in with a Relative efficacy of 0.003. The EPMR in assay [2] is given as 145. For the same compound, the Emax in assay [3] was 0.16. This compound registered a Tremorolytic dose in assay [5] of 150 µM/kg.

Regarding `O=C1CCC(=O)N1CC#CCN1CCCC1`, it took 1 µM to reach a half-maximal effect in assay [1] (EC50). The compound also returned a Kd in assay [4] of 5 µM. This compound registered a Relative efficacy in assay [6] of 0.027. In addition, the Emax in assay [3] was 0.98. The compound also displayed a Tremorolytic dose in assay [5] of 23 µM/kg.

Compound `CS(=O)(=O)N(CC#CCN1CCCC1)S(C)(=O)=O` came in with a dissociation constant (Kd) in assay [4] of 15.9 µM. Further, the Tremorolytic dose in assay [5] was >200 µM/kg.

For `CCN(CC)CC#CC(C)N(C(C)=O)C(C)=O` (configuration not stated), in assay [4], the Kd turned out to be 1.6 µM. Also, in assay [3], the Emax is recorded as 0. This compound also showed a Tremorolytic dose in assay [5] of 39 µM/kg.

`CC(=O)N(C(C)C#CCN1CCCC1)S(C)(=O)=O` (configuration not stated) returned a Kd in assay [4] of 3.1 µM. For the same compound, the Tremorolytic dose in assay [5] is 99.7 µM/kg.

With `CC(=O)N(CC#CC[N+](C)(C)C)C(C)=O`, in assay [1], the EC50 stood at 2 µM. Further, in assay [4], the Kd is 8.2 µM. In assay [6], this compound showed a Relative efficacy of 0.034. Further, the EPMR in assay [2] is on record as 19.3. In assay [3], this compound showed an Emax of 1.

With `CC(=O)N(C(C)=O)C(C)C#CCN1CCCC1` (configuration not stated), the dissociation constant (Kd) in assay [4] was 0.28 µM. Besides, the Emax in assay [3] is on record as 0. This compound showed a Tremorolytic dose in assay [5] of 3.2 µM/kg.

In turn, `CCN(CC)CC#CCN(C(C)=O)C(C)=O` had a dissociation constant (Kd) in assay [4] of 7.2 µM. Moreover, the Emax in assay [3] was found to be 0. Further, the Tremorolytic dose in assay [5] amounted to 107 µM/kg.

On to `CN(CC#CCN1CCCC1)S(C)(=O)=O`, for which, in assay [4], the Kd amounted to 68 µM. This compound registered a Tremorolytic dose in assay [5] of 174 µM/kg.

`CC(C#CCN(C)C)N(C)C(=O)C(F)(F)F` (configuration not stated): the dissociation constant (Kd) in assay [4] worked out at 95.4 µM. For the same compound, the Emax in assay [3] is given as <0.1. Moreover, the Tremorolytic dose in assay [5] is >200 µM/kg.

Take `CC(=O)N(CC#CCN1CCCC1)C(C)=O`: the Kd in assay [4] came out at 0.44 µM. This compound had an Emax in assay [3] of 0. Moreover, in assay [5], the Tremorolytic dose came to 2.9 µM/kg.

Take `CC(=O)N(C)C(C)C#CCN1CCCC1` (configuration not stated): the EC50 in assay [1] worked out at 0.19 µM. Moreover, the Kd in assay [4] turned out to be 0.24 µM. In assay [6], this compound returned a Relative efficacy of 0.013. The Emax in assay [3] turned out to be 0.83. In assay [5], this compound showed a Tremorolytic dose of 0.6 µM/kg.

As for `CC(=O)N(C)CC#CCN1CCCC1`, the half-maximal effective concentration (EC50) in assay [1] worked out at 0.069 µM. In addition, in assay [4], the dissociation constant Kd was determined as 2.2 µM. The Relative efficacy in assay [6] came to 0.15. The compound also registered an Emax in assay [3] of 1.01.

`CC(=O)N(CC#CCN1CCCC1)S(C)(=O)=O` came in with a Kd in assay [4] of 17.9 µM. For the same compound, the Tremorolytic dose in assay [5] was >200 µM/kg.
